Consider 1 compound from patent US20250019379A1, “NEW CRYSTAL FORM OF COMPOUND, AND PREPARATION METHOD THEREFOR AND USE THEREOF” (E-nitiate Biopharmaceuticals (Hangzhou) Co., Ltd, priority 2021, published 2025).

This data set in a line: Dynamic solubility in biological solvents at 37° C. Type of data set: physicochemical. As to the method:
(1) Preparation method of FaSSIF: a. Weigh 42 mg NaOH, 395 mg NaH2PO4·H2O and 619 mg NaCl in a 100 mL beaker, add 90 mL deionized water to dissolve: b. Adjust the pH to […]; Dilute to 100 mL with deionized water to obtain FaSSIF blank solvent: c. Weigh 224 mg of Simulated Intestinal Fluid (hereinafter referred to as SIF powder), add 50 mL of the above FaSSIF blank solvent, and stir until completely dissolved; use Dilute the FaSSIF blank solvent to 100 mL to prepare the solvent FaSSIF; d. Let it stand at room temperature for 2 hours before use.
(2) Preparation method of FeSSIF: a. Weigh 404 mg NaOH, 865 mg glacial acetic acid and 1189 mg NaCl in a 100 mL beaker, add 90 mL deionized water to dissolve: b. Adjust the pH to 5.0 with 1N NaOH or 1N HCl; Dilute to 100 mL with deionized water to obtain FeSSIF blank solvent; c. Weigh 1120 mg SIF powder and add 50 mL of the above FeSSIF blank solvent, stir until dissolved: dilute to 100 mL with FeSSIF blank solvent to obtain FeSSIF solvent d. Let it stand at room temperature before use to ensure a clear solution.
(3) Preparation method of SGF: a. Weigh 200 mg NaCl in a 100 mL beaker, add 90 mL deionized water to dissolve; b. Adjust the pH to 1.6 with 1N HCl; dilute to 100 mL with deionized water to obtain SGF Blank solvent; c. Weigh 6 mg SIF powder and add 50 mL of the above SGF blank solvent, stir until dissolved: dilute to 100 mL with SGF blank solvent to prepare the solvent SGF: d. Let it stand at room temperature before use to ensure a clear solution.
(100 rpm). Take 1.3 mL of the suspension (or clarified solution) respectively at 1, 4, and 24 hours, and centrifuge the suspension for 5 minutes. The solid obtained is used for crystal form detection (XRPD), and the supernatant/clarified solution is filtered for solubility testing and pH test.
Solubility data of the samples were collected using a high-performance liquid chromatograph equipped with an image diode array detector.

`C[C@@H](O)c1nc2cnc3[nH]ccc3c2n1N1CCC(CC#N)CC1` [Crystalline form A, (R)-2-(1-(2-(1-hydroxyethyl)imidazo[4,5-d]pyrrolo[2,3-b]pyridine-1(6H)-yl)piperidin-4-yl)acetonitrile]: the “Changes in Crystal form” value was “no change” (FaSSIF, 37° C., 1 h); “no change” (FaSSIF, 37° C., 24 h); “no change” (FeSSIF, 37° C., 1 h); “no change” (FeSSIF, 37° C., 24 h); “no change” (SGF, 37° C., 1 h); “no change” (SGF, 37° C., 24 h). Moreover, the pH runs as follows: (FaSSIF, 37° C., 1 h) 6.41; (FaSSIF, 37° C., 4 h) 6.49; (FaSSIF, 37° C., 24 h) 6.54; (FeSSIF, 37° C., 1 h) 4.92; (FeSSIF, 37° C., 4 h) 4.95; (FeSSIF, 37° C., 24 h) 4.99. Moreover, the pH is given as 2.92 (SGF, 37° C., 1 h); 2.99 (SGF, 37° C., 4 h); 2.95 (SGF, 37° C., 24 h). In addition, the “crystal form stability when suspended and stirred” value (SGF/FeSSIF/FeSSIF, 24 hours, 37° C.) was “stable”. Further, the “solubility in three solvents (SGF/FaSSIF/FeSSIF), comparison” value (within 24 hours at 37° C.) is “greater than that of crystalline form Q”.
